Test system: PLD activity in differentiated HL-60 cells
Experiment: PLD activity (PEt formation) in differentiated HL-60 cells
Format: cell-based, human
Settings: differentiated HL-60 cells, biphasic response
Protocol: Cell cultures and differentiation. HL-60 cells were seeded in RPMI medium supplemented with 100 U/ml penicillin, 100 μg/ml streptomycin, and 10% fetal calf serum (Hyclone, Logan, Utah), incubated at 37° C. with 5% CO2 atmosphere in 250 ml flasks. Individual flasks containing ˜[…] next received dimethyl sulfoxide (DMSO) (1.12% v/v, 120 h) or retinoic acid (RA) (1 μM, 120 h) or phorbol myristate acetate (PMA) (20 nM, 48 h). Before performing binding assays, cells were washed twice in phosphate buffered saline (PBS), Ca^2+- and Mg^2+-free, enumerated and suspended at 20×10^6 cells/ml in Tris buffer (10 mM), pH 7.4 (Fiore, S. et al.(1992) J. Biol. Chem. 267:16168). Nitro blue tetrazolium reduction was performed to monitor induction of polymorphonuclear phenotype as in (Imaizumi, M. and Breitman, T. R. (1986) Blood 67:1273), and cell adherence was determined for induction of macrophage-like phenotype (Collins, S. J. (1987) Blood 70:1273). Human umbilical vein endothelial cells (HUVEC) maintained in culture third passage were obtained from Dr. M. Gimbrone (Brigham and Women's Hospital Department of Pathology).
PLD activity. Human PMN and HL-60 cells (50×10^6 cells/ml) prepared as above were incubated with ^3H-myristic acid or ^3H-palmitic acid (8 μCi/50×10^6 cells) for 40-60 min at 37° C. in PBS. Cell uptake ranged between 60-80% of added label, 7.1±4.2% (n=10; mean ±S.D.) and 32.6±10.3% (n=6; mean ±S.D.) into total phospholipid classes of PMN and HL-60 cells, respectively. Incubations were carried out at 37° C. (10 ×10^6 cells/ml PBS). […] At indicated times, incubations were stopped by adding 3.5 ml of ice cold CHCl3/MeOH (2/5, v/v) containing 1-^14C-arachidonic acid (5,000 cpm) used here as internal standard to quantitate extraction recoveries. […] Regions corresponding to PA, PEt, and internal standards were scraped and quantified by liquid scintillation counting. […] All values reported for PEt formation in Tables 4 and 5 were calculated by subtracting the dpm obtained in the presence of […]. […]

CCCCC[C@H](O)/C=C/C=C\C=C\C=C\[C@@H](O)[C@@H](O)CCCC(=O)O [LXA4, (5S, 6R, 15S)-trihydroxy-7E, 9E, 11Z, 13E-eicosatetraenoic acid]
concentration of apparent maximum, PEt formation: 10^−9 M

Reference: patent publication US20030134901A1, “Lipoxin compounds and their use in treating cell proliferative disorders” (priority 1993, published 2003)
